According to PMC6694100, “The complex of ferric-enterobactin with its transporter from Pseudomonas aeruginosa suggests a two-site model” (Nature Communications, 2019):
Values joined by “and” are separate entries in the source; they are usually repeats but may differ in a detail not shown here. Equal entries are not always repeated. “Also recorded” adds a separate entry of the source. Where two headings read alike, the source gives them in different places.

Experiments:
[1] = tested on: wild-type PAO1 strain; experiment: 55Fe-enterobactin binding and uptake assay, PAO1; format: cell-based, Pseudomonas aeruginosa; conditions: replicates, Figure 6b-c, listed as 55Fe-enterobactin
Experimental: (§1) Fig. 6 Effects of PfeA mutation in vivo. a Analysis of changes in the transcription of pfeA gene. PAO1 strain, its corresponding deletion mutant ∆pfeA and deletion mutants carrying the expression plasmid of PfeA wild-type (∆pfeA(pMMBpfeA) or the R480A-Q482A mutant (∆pfeA(pMMBpfeAR480AQ482A)) were grown in CAA medium supplemented with 10 µM enterobactin. The data were normalised relative to the reference gene uvrD, and are representative of three independent experiments performed in triplicate (n = 3). The results are given as a ratio between the values obtained for ∆pfeA, ∆pfeA(pMMBpfeA) and ∆pfeA(pMMBpfeAR480AQ482A) over those obtained for the PAO1 strain. b ^55Fe-enterobactin binding at the bacterial surface. Cells were grown as in panel a, and were incubated for 15 min with 200 µM CCCP before initiation of transport assays by the addition of 500 nM ^55Fe-enterobactin. After 30 min incubation, the radioactivity accumulated in the bacteria was counted. The results are expressed as pmol of ^55Fe-enterobactin bound per ml of cells at an OD600 of 1. The experiments have been repeated three times. c ^55Fe-enterobactin binding and uptake. Cells were grown as in panel a, and were incubated with or without 200 µM CCCP before initiation of transport assays by the addition of 500 nM ^55Fe-enterobactin. After 30 min incubations, the radioactivity accumulated in the bacteria was counted. The results are expressed as pmol of ^55Fe-enterobactin bound and transported per ml of cells at an OD600 of 1. The experiments have been repeated three times
The complex was prepared at ^55Fe concentrations of 50 μM, with a siderophore:iron (mol:mol) ratio of 20:1. P. aeruginosa strains were first grown overnight at 30 °C in LB broth, and were then washed, resuspended and cultured overnight at 30 °C in iron-deficient CAA medium (casamino acid medium, composition: 5 g.l^−1 low-iron CAA (Difco), 1.46 g.l^−1 K2HPO4 3H2O, 0.25 g.l^−1 MgSO4 7H2O) and in the presence of 10 µM enterobactin to induce the expression of PfeA. CAA is a highly iron-restricted medium with iron concentrations of 20 nM[59]. Afterwards bacteria were washed with 50 mM Tris-HCl pH 8.0, and diluted to an OD600 of 1. Cells solutions were divided in two, one batch being treated with 200 μM CCCP. […] After 30 min of incubations, cells were centrifuged, and the radioactivity associated to the bacteria was monitored in the cell pellets. For the cells treated with CCCP, the radioactivity in the cell pellets corresponds to the binding of ^55Fe-enterobactin to P. aeruginosa cell surface, since no uptake occurs. In the absence of CCCP, the radioactivity associated to the cells corresponds to ^55Fe-enterobactin binding to the cell surface and the uptake into the bacteria.

[2] = target: T1, PfeA wild-type (Pseudomonas aeruginosa, UniProt Q05098); experiment: isothermal titration calorimetry, PfeA wild-type; format: binding; conditions: ITC reverse titration (PfeA into Fe^3+-enterobactin), estimate
T1 construct: His7 tag with TEV protease site (N, cleaved yes); made in house; host or cells: E. coli C43 (DE3)
Experimental: (§2) The sites have different affinities for the ligand, one with high affinity and highly favourable enthalpy and the second with lower affinity and unfavourable enthalpy. Although the biphasic nature of the isotherm was reproducible, the numerical values varied. For K1, the binding constant was 20 to 100 nM; for K2 […]. […] The weaker binding at the […] site is consistent with the higher B-factor of the Fe^3+-enterobactin molecule observed in the complex crystal structures.
(§3) Affinities of PfeA wild-type and mutants for Fe^3+-enterobactin were measured by isothermal titration calorimetry using a VP-ITC instrument (GE Healthcare) at 25 °C. Titrations were performed using 57 × 5 μl injections of Fe^3+-enterobactin (70–55 μM) into 10 μM protein. The heats of dilution measured from injection of the ligands into the buffer were subtracted, and titration curves were fitted using AFFINImeter software with a two-site binding model. Concentrations of Fe^3+-enterobactin solutions were verified with UV/vis spectrophotometry using a published molar extinction coefficient of ε495 = 5600 M^−1 cm^−1. […] Reverse titration has been also performed (PfeA into Fe^3+-enterobactin), but data suffer from high heats of dilution in the beginning of the blank titration of PfeA into the buffer giving estimates of K1 = 95 nM and K2 = 4.5 μM for the wild-type.

[3] = target: T2, PfeA Q482A mutant (Pseudomonas aeruginosa, UniProt Q05098, Q507A); experiment: isothermal titration calorimetry, PfeA Q482A; format: binding
T2 construct: His7 tag with TEV protease site (N, cleaved yes); made in house; host or cells: E. coli C43 (DE3)
Experimental: as §2, §3

[4] = target: T3, PfeA R480A mutant (Pseudomonas aeruginosa, UniProt Q05098, R505A); experiment: isothermal titration calorimetry, PfeA R480A; format: binding
T3 construct: His7 tag with TEV protease site (N, cleaved yes); made in house; host or cells: E. coli C43 (DE3)
Experimental: as §2, §3

[5] = target: T4, PfeA (Pseudomonas aeruginosa, UniProt Q05098); experiment: coelution on S200 size-exclusion column, PfeA wild-type; format: binding
T4 construct: His7 tag with TEV protease site (N, cleaved yes); made in house; host or cells: E. coli C43 (DE3)
Experimental: Proteins were incubated with the Fe^3+-siderophore before being loaded on a S200 size-exclusion column.
Crystals of PfeA appeared at 20 °C after few days by mixing 2 μl of protein solution (10 mg.ml^−1) with 1 μl of reservoir solution containing 11% polyethylene glycol 8000, 0.05 M ADA pH 6.5 and 0.1 M magnesium acetate. Crystals were frozen with the same solution containing 25% ethylene glycol. Enterobactin structure complexes were obtained by soaking apo crystals for few hours with mother liquor containing 5 mM Fe^3+-enterobactin before cryoprotection. For the others complexes, crystals were cross-linked by diffusion of 25% glutaraldehyde prior the soaking. Co-crystallisation attempts have been performed by incubating the protein for 1 h at room temperature with the ligand before been loaded on a S200 16/60 column and concentrated for setting up the crystallisation plates. No crystals have been obtained by co-crystallisation. Crystallisation conditions of the mutants were the same as for the wild-type.

[6] = tested on: ∆pfeA(pMMBpfeA) cells (native PfeA); experiment: 55Fe-enterobactin binding and uptake assay, ∆pfeA(pMMBpfeA); format: cell-based, Pseudomonas aeruginosa; conditions: for Comptage (dpm): replicate counts; for Comptage (dpm) / 55Fe incorporated, pmol/ml/DO600: Supplementary Fig 10, listed as 55Fe-enterobactin; for 55Fe incorporated, pmol/ml/DO600: replicates
Experimental: as §1
The complex was prepared at ^55Fe concentrations of 50 μM, with a siderophore:iron (mol:mol) ratio of 20:1. P. aeruginosa strains were first grown overnight at 30 °C in LB broth, and were then washed, resuspended and cultured overnight at 30 °C in iron-deficient CAA medium (casamino acid medium, composition: 5 g.l^−1 low-iron CAA (Difco), 1.46 g.l^−1 K2HPO4 3H2O, 0.25 g.l^−1 MgSO4 7H2O) and in the presence of 10 µM enterobactin to induce the expression of PfeA. CAA is a highly iron-restricted medium with iron concentrations of 20 nM[59]. Afterwards bacteria were washed with 50 mM Tris-HCl pH 8.0, and diluted to an OD600 of 1. Cells solutions were divided in two, one batch being treated with 200 μM CCCP. This compound collapses the proton-motive force across the bacterial cell membranes, inhibiting TonB-dependent iron uptake. Binding and transport assays were initiated by adding 500 nM ^55Fe-enterobactin to the bacterial solutions treated or not with CCCP. After 30 min of incubations, cells were centrifuged, and the radioactivity associated to the bacteria was monitored in the cell pellets. For the cells treated with CCCP, the radioactivity in the cell pellets corresponds to the binding of ^55Fe-enterobactin to P. aeruginosa cell surface, since no uptake occurs. In the absence of CCCP, the radioactivity associated to the cells corresponds to ^55Fe-enterobactin binding to the cell surface and the uptake into the bacteria.

[7] = target: T5, PfeA R480A-Q482A double mutant (Pseudomonas aeruginosa, UniProt Q05098, Q507A/R505A); experiment: isothermal titration calorimetry, PfeA R480A-Q482A; format: binding
T5 construct: His7 tag with TEV protease site (N, cleaved yes); made in house; host or cells: E. coli C43 (DE3)
Experimental: as §2, §3

T1 sequence (Q05098 26-746): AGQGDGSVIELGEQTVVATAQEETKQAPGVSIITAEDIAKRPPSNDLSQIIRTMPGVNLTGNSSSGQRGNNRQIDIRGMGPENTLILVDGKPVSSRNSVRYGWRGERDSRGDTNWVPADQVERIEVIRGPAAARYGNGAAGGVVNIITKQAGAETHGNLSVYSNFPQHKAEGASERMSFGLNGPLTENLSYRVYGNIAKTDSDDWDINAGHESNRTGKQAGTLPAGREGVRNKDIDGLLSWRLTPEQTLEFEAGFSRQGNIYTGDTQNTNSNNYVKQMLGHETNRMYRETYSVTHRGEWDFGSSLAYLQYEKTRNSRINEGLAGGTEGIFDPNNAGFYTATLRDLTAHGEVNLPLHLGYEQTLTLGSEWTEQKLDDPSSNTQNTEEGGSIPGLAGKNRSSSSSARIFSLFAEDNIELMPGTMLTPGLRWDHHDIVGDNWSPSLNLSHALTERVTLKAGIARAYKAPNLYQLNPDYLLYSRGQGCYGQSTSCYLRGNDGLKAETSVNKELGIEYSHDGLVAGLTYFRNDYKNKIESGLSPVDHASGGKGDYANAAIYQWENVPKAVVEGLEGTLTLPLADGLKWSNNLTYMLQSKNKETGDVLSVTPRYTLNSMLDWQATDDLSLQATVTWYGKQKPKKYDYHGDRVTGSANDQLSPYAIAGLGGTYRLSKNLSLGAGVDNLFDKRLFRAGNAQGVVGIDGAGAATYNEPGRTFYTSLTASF
T2 sequence (Q05098 26-746 Q507A): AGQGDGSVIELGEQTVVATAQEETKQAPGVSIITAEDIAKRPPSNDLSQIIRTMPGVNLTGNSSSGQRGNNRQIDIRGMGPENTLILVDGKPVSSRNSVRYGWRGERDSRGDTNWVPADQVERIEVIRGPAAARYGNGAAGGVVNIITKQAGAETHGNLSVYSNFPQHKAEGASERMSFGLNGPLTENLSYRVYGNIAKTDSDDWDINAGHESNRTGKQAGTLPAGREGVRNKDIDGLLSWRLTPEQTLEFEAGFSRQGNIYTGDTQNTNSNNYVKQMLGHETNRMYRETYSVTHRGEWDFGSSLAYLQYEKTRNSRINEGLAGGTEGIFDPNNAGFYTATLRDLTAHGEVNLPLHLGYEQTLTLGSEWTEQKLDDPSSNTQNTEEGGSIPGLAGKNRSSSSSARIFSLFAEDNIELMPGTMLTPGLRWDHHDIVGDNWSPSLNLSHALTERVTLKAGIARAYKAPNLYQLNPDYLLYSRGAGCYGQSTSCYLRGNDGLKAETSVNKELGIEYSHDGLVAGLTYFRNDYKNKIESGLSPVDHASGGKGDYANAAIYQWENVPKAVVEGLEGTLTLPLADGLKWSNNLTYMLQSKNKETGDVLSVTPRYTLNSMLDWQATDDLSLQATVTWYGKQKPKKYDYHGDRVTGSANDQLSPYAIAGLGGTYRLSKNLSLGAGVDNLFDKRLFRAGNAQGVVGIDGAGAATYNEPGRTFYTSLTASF
T5 sequence (Q05098 26-746 R505A/Q507A): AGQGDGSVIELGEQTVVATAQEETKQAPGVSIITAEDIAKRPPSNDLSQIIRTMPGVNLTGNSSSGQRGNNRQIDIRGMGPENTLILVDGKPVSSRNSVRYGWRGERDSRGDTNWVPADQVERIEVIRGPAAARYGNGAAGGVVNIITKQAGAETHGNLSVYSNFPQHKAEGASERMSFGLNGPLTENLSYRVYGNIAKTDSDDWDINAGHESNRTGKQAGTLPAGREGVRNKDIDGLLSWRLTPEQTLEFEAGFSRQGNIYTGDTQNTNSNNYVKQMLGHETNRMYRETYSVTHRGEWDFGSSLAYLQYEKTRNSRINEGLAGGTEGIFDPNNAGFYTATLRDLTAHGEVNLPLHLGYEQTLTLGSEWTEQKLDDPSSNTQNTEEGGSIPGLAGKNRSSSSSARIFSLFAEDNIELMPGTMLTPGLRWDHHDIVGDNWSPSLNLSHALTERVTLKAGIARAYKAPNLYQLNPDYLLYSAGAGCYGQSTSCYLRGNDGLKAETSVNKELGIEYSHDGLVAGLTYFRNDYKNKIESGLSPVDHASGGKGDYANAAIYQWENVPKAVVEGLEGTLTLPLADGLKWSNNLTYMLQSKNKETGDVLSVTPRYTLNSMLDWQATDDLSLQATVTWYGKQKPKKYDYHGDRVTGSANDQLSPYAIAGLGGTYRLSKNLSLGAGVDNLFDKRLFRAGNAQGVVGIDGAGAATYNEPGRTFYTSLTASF
T3 sequence (Q05098 26-746 R505A): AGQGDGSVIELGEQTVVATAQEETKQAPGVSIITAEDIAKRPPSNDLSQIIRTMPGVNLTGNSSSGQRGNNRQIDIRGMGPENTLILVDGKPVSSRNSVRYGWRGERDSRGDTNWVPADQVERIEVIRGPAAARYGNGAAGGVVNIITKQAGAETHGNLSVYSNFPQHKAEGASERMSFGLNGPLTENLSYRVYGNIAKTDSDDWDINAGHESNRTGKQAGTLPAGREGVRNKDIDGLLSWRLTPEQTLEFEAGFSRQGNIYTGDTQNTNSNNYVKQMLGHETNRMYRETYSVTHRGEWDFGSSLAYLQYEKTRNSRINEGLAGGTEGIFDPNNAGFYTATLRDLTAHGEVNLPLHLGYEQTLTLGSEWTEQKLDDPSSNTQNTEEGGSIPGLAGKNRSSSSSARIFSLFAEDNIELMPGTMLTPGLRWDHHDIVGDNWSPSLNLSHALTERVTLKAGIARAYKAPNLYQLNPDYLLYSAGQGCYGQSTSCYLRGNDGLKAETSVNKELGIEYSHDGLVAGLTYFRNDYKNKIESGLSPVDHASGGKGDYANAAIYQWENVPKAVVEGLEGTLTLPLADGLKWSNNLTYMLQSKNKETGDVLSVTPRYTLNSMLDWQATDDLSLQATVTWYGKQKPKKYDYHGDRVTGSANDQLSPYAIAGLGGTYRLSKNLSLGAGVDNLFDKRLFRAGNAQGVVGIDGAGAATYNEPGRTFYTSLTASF
T4 sequence (Q05098 26-746): as the sequence (Q05098 26-746) above

SMILES: O=C(N[C@H]1COC(=O)[C@@H](NC(=O)c2cccc([O-])c2[O-])COC(=O)[C@@H](NC(=O)c2cccc([O-])c2[O-])COC1=O)c1cccc([O-])c1[O-].[Fe+3] [Fe^3+-enterobactin]
- 55Fe count, Comptage ([1]; PAO1 + CCCP): 1670 dpm and 1638 dpm and 1498 dpm
- 55Fe-enterobactin bound/taken up ([1]; PAO1 + CCCP): 21.426 pmol/ml/DO600 and 21.0154 pmol/ml/DO600 and 19.2192 pmol/ml/DO600
- 55Fe count, Comptage ([1]; PAO1, no CCCP): 14331 dpm and 14149 dpm and 16177 dpm
- 55Fe-enterobactin bound/taken up ([1]; PAO1, no CCCP): 183.866 pmol/ml/DO600 and 181.531 pmol/ml/DO600 and 207.55 pmol/ml/DO600
- Kd ([2]; read-out: K1, reverse titration): 0.095 µM
- Kd ([2]; read-out: K2, reverse titration): 4.5 µM
- binding by ITC [3]: biphasic isotherms, but with much reduced heat output and smaller K1 values; also recorded: weakened (but detectable) binding
- binding by ITC [4]: typical low affinity-binding curve profile; also recorded: weakened (but detectable) binding
- coelution with protein on size-exclusion column [5]: coelute with PfeA
- ^55Fe-siderophore binding at the bacterial surface ([6]; CCCP treated cells (200 µM), 500 nM ^55Fe-enterobactin, 30 min, compared with wild-type PAO1): much higher levels of binding
- ^55Fe-enterobactin binding and uptake ([6]; cells not treated with CCCP, 500 nM ^55Fe-enterobactin, 30 min): less efficient
- Comptage (dpm) ([6]; ∆pfeA (pMMBpfeA) (no CCCP)): 9474 dpm and 9114 dpm and 9574 dpm
- 55Fe incorporated, pmol/ml/DO600 ([6]; ∆pfeA (pMMBpfeA) (no CCCP)): 121.551 pmol/ml/DO600 and 116.932 pmol/ml/DO600 and 122.834 pmol/ml/DO600
- Comptage (dpm) ([6]; ∆pfeA (pMMBpfeA) + CCCP): 6090 dpm and 6603 dpm and 5856 dpm
- 55Fe incorporated, pmol/ml/DO600 ([6]; ∆pfeA (pMMBpfeA) + CCCP): 78.1342 pmol/ml/DO600 and 84.716 pmol/ml/DO600 and 75.132 pmol/ml/DO600
- binding by ITC [7]: no binding was detected; also recorded: did not show any detectable binding
